Experimental findings from patent US9630962B2, “4-amino-6-(2,6-dichlorophenyl)-2-(phenylamino)-pyrido[2,3-d]pyrimidin-7(8H)-one derivatives, synthesis and uses thereof” (INSTITUT QUÍMIC DE SARRIÁ, CETS FUNDACIÓ PRIVADA, priority 2013, dated 2017) are described below.

The term remaining activity denotes the signal under treatment as a percentage of the control signal.

Common to all, as to experiment: Radiometric protein kinase assay (33PanQinase Activity Assay), residual activity
What all share (format): biochemical
Conditions in all cases: 10 μM (1×10^−05 M) test compound, singlicate

One assay concerns the target T1, BTK (Homo sapiens, UniProt Q06187).
T1 construct: purchased ProQinase; host or cells: Sf9 insect cells or E. coli (not specified per kinase)
Here is the method:
(§1) The kinase inhibition profile of compounds of formula (I) was evaluated at Proqinase (http://www.proqinase.conn) by measuring residual activity values at a concentration of 10 μM of the test compound in singlicate in front of the following kinases: BTK, LYN, SYK aa1-635 using the following protocol:
(§2) The compounds were dissolved to 1×10^−03 M stock solutions in 100% DMSO. Subsequently, 100 μl of each stock solution were transferred into wells A3-F12 of a microtiter plate (“master plate”). Wells A1-F2 were filled with 100 μl 100% DMSO as controls. 5×10 μl of the master plate were aliquoted into 5 copy plates, which were stored at −20° Celsius until use. For the testing of each group of up to 8 kinases, one copy plate was used.
(§3) In the process, 90 μl H2O were added to each well of a copy plate. To minimize precipitation, the H2O was added to each well only a few minutes before the transfer of the compound solutions into the assay plates. The plate was shaken thoroughly, resulting in a “compound dilution plate” with a compound concentration of 1×10^−04 M/10% DMSO. This plate was used for the transfer of 5 μl compound solution into the assay plates. The final volume of the assay was 50 μl. All compounds were tested at 1×10^−05 M in singlicate. The final DMSO concentration in the reaction cocktails was 1% in all cases. The compound dilution plates were disposed at the end of each working day.
(§4) A radiometric protein kinase assay (^33PanQinase® Activity Assay) was used for measuring the kinase activity of the corresponding protein kinases. All kinase assays were performed in 96-well FlashPlates™ from Perkin Elmer (Boston, Mass., USA) in a 50 μl reaction volume. The reaction cocktail was pipetted in 4 steps in the following order: • 10 μl of non-radioactive ATP solution (in H2O) • 25 μl of assay buffer/[γ-33P]-ATP mixture • 5 μl of test sample in 10% DMSO • 10 μl of enzyme/substrate mixture
(§5) The protein kinase reaction cocktails were incubated at 30° C. for 60 minutes. The reaction was stopped with 50 μl of 2% (v/v) H3PO4, plates were aspirated and washed two times with 200 μl 0.9% (w/v) NaCl. All assays were performed with a BeckmanCoulter Biomek 2000/SL robotic system. Incorporation of ^33Pi (counting of “cpm”) was determined with a microplate scintillation counter (Microbeta, Wallac).
(§6) All protein kinases provided by ProQinase were expressed in Sf9 insect cells or in E. coli as recombinant GST-fusion proteins or His-tagged proteins. All kinases were produced from human cDNAs and purified by either GSH-affinity chromatography or immobilized metal. Affinity tags were removed from a number of kinases during purification. The purity of the protein kinases was examined by SDS-PAGE/Coomassie staining, the identity was checked by mass spectroscopy.
(§7) For each kinase, the median value of the cpm of six wells of column 1 of each assay plate was defined as “low control” (n=6). This value reflects unspecific binding of radioactivity to the plate in the absence of a protein kinase but in the presence of the substrate. Additionally, for each kinase the median value of the cpm of six wells of column 2 of each assay plate was taken as the “high control”, i.e. full activity in the absence of any inhibitor (n=6). The difference between high and low control of each enzyme was taken as 100% activity.
(§8) As part of the data evaluation the low control of each kinase was subtracted from the high control value as well as from their corresponding “compound values”. The residual activity (in %) for each compound well was calculated by using the following formula: Res. Activity (%)=100×[(signal of compound −low control)/(high control −low control)] Results
(§9) The singlicate residual activity values of the tested compounds at one concentration (1×10^−05 M) in singlicate in the required protein kinase assays are given.

A further assay deals with T2, LYN (Homo sapiens, UniProt P07948).
T2 construct: purchased ProQinase; host or cells: Sf9 insect cells or E. coli (not specified per kinase)
T2 sequence (P07948 whole entry): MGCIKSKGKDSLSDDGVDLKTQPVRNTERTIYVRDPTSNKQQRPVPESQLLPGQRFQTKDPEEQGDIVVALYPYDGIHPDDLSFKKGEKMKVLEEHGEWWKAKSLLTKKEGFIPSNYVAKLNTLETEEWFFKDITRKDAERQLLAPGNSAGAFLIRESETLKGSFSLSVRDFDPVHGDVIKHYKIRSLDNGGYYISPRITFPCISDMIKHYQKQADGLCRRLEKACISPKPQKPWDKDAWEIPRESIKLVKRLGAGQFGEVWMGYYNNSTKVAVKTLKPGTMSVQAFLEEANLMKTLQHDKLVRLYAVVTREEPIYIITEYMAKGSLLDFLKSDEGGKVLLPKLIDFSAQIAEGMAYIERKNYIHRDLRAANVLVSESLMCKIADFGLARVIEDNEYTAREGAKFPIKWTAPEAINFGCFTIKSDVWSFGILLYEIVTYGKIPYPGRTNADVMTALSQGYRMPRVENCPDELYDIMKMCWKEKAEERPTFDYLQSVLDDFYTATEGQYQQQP
The protocol:
as §1, §2, §3, §4, §5, §6, §7, §8, §9

The target of the next assay is T3, SYK aa1-635 (Homo sapiens, UniProt P43405).
T3 construct: BTK, LYN, SYK aa1-635; purchased ProQinase; host or cells: Sf9 insect cells or E. coli (not specified per kinase)
The protocol: as §1, §2, §3, §4, §5, §6, §7, §8, §9

T1 sequence (Q06187 whole entry): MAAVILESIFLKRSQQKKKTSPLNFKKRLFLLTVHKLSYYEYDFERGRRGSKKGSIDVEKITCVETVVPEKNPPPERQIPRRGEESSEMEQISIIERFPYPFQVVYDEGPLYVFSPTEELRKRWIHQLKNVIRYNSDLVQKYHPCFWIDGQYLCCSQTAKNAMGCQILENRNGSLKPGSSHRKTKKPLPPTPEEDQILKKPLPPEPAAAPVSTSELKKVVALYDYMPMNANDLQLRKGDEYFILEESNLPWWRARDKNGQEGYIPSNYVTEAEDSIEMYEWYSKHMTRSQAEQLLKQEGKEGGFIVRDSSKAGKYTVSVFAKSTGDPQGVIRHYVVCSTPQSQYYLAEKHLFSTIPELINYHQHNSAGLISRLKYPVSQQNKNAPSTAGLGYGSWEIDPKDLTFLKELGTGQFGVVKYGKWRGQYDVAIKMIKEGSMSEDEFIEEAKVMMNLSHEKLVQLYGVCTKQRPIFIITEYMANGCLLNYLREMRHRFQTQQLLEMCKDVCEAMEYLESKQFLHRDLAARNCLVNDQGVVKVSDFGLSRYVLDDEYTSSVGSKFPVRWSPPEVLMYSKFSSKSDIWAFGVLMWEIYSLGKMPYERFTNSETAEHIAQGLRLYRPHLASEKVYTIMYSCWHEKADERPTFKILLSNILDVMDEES

On to `CN1CCN(c2ccc(Nc3nc(N)c4cc(-c5c(Cl)cccc5Cl)c(=O)n(C)c4n3)cc2)CC1` [Example 5, 4-amino-6-(2,6-dichlorophenyl)-8-methyl-2-(4-(4-methylpiperazin-1-yl)phenylamino)pyrido[2,3-d]pyrimidin-7(8H)-one], for which the figures for the remaining activity at 10 µM on BTK, on LYN and at SYK aa1-635 were 3%, -1% and 9%, respectively.
